According to patent US9156872B2, “2′-azido substituted nucleoside derivatives and methods of use thereof for the treatment of viral diseases” (priority 2011, dated 2015):

System: HCV replicon cells
Assay: Cell-based HCV replicon assay (replicon RNA by Taqman real time PCR)
Settings: HCV replicon 1b, cells harvested on day 3; read-out: 1b EC50

First: CCCOP1(=O)OC[C@H]2O[C@@H](n3ccc(=O)[nH]c3=O)[C@](C)(N=[N+]=[N-])[C@@H]2O1 (some centres unmarked) [Compound 86]
Second: CCOc1nc(N)nc2c1ncn2[C@@H]1O[C@@H]2COP(=O)(OC3CCC3)O[C@H]2[C@@]1(C)N=[N+]=[N-] (single isomer, unassigned) [Compound 101]
The EC50 of the first is higher: greater than 100000 nM for the first, 100 nM for the second. The second is the more potent here.

Same assay, conditions: Hepatitis C virus, 72 h, HCV replicon 1b, cells harvested on day 3; read-out: 1b EC50

`CCCOP1(=O)OC[C@H]2O[C@@H](n3cnc4c(OCC)nc(N)nc43)[C@](C)(N=[N+]=[N-])[C@@H]2O1` (some centres unmarked) [Compound 24] and `CCOc1nc(N)nc2c1ncn2[C@@H]1O[C@H](CO)[C@@H](O)[C@@]1(C)N=[N+]=[N-]` [Compound 8] cannot be ordered by EC50: greater than 100000 nM for the first, greater than 100000 nM for the second.

Same assay, conditions: Hepatitis C virus, 72 h, read-out: 1b EC50

`CCCOC(=O)[C@H](C)NP(=O)(OC[C@H]1O[C@@H](n2ccc(N)nc2=O)[C@](C)(N=[N+]=[N-])[C@@H]1O)Oc1ccccc1` (some centres unmarked) [Compound 30] and `CC(C)COC(=O)[C@H](C)NP(=O)(OC[C@H]1O[C@@H](n2ccc(N)nc2=O)[C@](C)(N=[N+]=[N-])[C@@H]1O)Oc1ccccc1` (some centres unmarked) [Compound 48] are within 1.5-fold of each other in EC50: 3300 nM for the first, 3100 nM for the second.

`CCOc1nc(N)nc2c1ncn2[C@@H]1O[C@H](COP(=O)(N[C@@H](C)C(=O)OC(C)C)Oc2ccccc2)[C@@H](O)[C@@]1(C)N=[N+]=[N-]` (some centres unmarked) [Compound 20] and `COc1nc(N)nc2c1ncn2[C@@H]1O[C@H](COP(=O)(N[C@@H](C)C(=O)OC(C)C)Oc2ccccc2)C(O)[C@@]1(C)N=[N+]=[N-]` (single isomer, unassigned) [Compound 252] are within 1.5-fold of each other in EC50: 1000 nM for the first, 1100 nM for the second.

First: CCCCOC(=O)[C@H](C)NP(=O)(OC[C@H]1O[C@@H](n2ccc(=O)[nH]c2=O)[C@](C)(N=[N+]=[N-])[C@@H]1O)Oc1ccc(Cl)c(Cl)c1 (some centres unmarked) [Compound 372]
Second: CCCCOC(=O)[C@H](C)NP(=O)(OC[C@H]1O[C@@H](n2ccc(=O)[nH]c2=O)[C@](C)(N=[N+]=[N-])[C@@H]1O)Oc1ccc(F)cc1 (some centres unmarked) [Compound 367]
The EC50 of the first is 1.8-fold higher: 6000 nM for the first, 3300 nM for the second. The second is the more potent here.

First: COC(=O)[C@H](C)NP(=O)(OC[C@H]1O[C@@H](n2cnc3c(OC)nc(N)nc32)[C@](C)(N=[N+]=[N-])[C@@H]1O)Oc1ccccc1 (some centres unmarked) [Compound 53]
Second: CCOC(=O)[C@H](C)NP(=O)(OC[C@H]1O[C@@H](n2cnc3c(OC)nc(N)nc32)[C@](C)(N=[N+]=[N-])[C@@H]1O)Oc1ccc(Cl)cc1 (single isomer, unassigned) [Compound 238]
The EC50 of the first is 1.7-fold lower: 700 nM for the first, 1200 nM for the second. The first is the more potent here.

First: COC(=O)[C@H](C)NP(=O)(OC[C@H]1O[C@@H](n2cnc3c(N4CCC4)nc(N)nc32)[C@](C)(N=[N+]=[N-])[C@@H]1O)Oc1ccccc1Cl (some centres unmarked) [Compound 388]
Second: COc1nc(N)nc2c1ncn2[C@@H]1O[C@H](COP(=O)(N[C@@H](C)C(=O)OC(C)C)Oc2ccc(F)cc2)[C@@H](O)[C@@]1(C)N=[N+]=[N-] (single isomer, unassigned) [Compound 269]
The EC50 of the first is 2.3-fold higher: 1600 nM for the first, 700 nM for the second. The second is the more potent here.

`CCCCOC(=O)[C@H](C)NP(=O)(OC[C@H]1O[C@@H](n2ccc(=O)[nH]c2=O)[C@](C)(N=[N+]=[N-])[C@@H]1O)Oc1cccc2ccccc12` (single isomer, unassigned) [Compound 155] showed an EC50 of 2200 nM.

Same assay, conditions: read-out: 1b EC50

First: CC(C)OC(=O)[C@H](C)NP(=O)(OC[C@H]1O[C@@H](n2ccc(=O)[nH]c2=O)[C@](C)(N=[N+]=[N-])[C@@H]1O)Oc1ccc2c(c1)OCO2 (some centres unmarked) [Compound 234]
Second: COC(=O)[C@H](C)NP(=O)(OC[C@H]1O[C@@H](n2ccc(=O)[nH]c2=O)[C@](C)(N=[N+]=[N-])[C@@H]1O)Oc1ccccc1 (single isomer, unassigned) [Compound 159]
The EC50 of the first is 4-fold higher: 25000 nM for the first, 6200 nM for the second.

Going from `CCCCOC(=O)[C@H](C)NP(=O)(OC[C@H]1O[C@@H](n2ccc(=O)[nH]c2=O)[C@](C)(N=[N+]=[N-])[C@@H]1O)Oc1ccccc1` (single isomer, unassigned) [Compound 170] to `C[C@H](NP(=O)(OC[C@H]1O[C@@H](n2ccc(=O)[nH]c2=O)[C@](C)(N=[N+]=[N-])[C@@H]1O)Oc1ccc(F)cc1)C(=O)OC1CCCCC1` (some centres unmarked) [Compound 89], the EC50 rises from 1500 nM to greater than 100000 nM.

`CCOc1nc(N)nc2c1ncn2[C@@H]1O[C@H](COP(=O)(N[C@@H](C)C(=O)OC(C)C)Oc2ccc(Cl)c(Cl)c2)[C@@H](O)[C@@]1(C)N=[N+]=[N-]` (single isomer, unassigned) [Compound 360] gave an EC50 of 4800 nM.
